Experimental data published in ChEMBL document CHEMBL1149806, “Synthesis and antiproliferative activities of isoindigo and azaisoindigo derivatives” (Eur J Med Chem, 2008).

How the values were obtained:
KB [1] = experiment: Antiproliferative activity against human KB cells at 10 uM after 72 hrs by MTS test; assay type: functional
HL-60 = experiment: Antiproliferative activity against human HL60 cells at 10 uM after 72 hrs by MTS test; assay type: functional; conditions: HL-60, 72 h
K562 = experiment: Antiproliferative activity against human K562 cells at 10 uM after 72 hrs by MTS test; assay type: functional; conditions: K562, 72 h
KB [2] = experiment: Antiproliferative activity against human KB cells at 0.25 nM after 72 hrs by MTS test; assay type: functional
KB [3] = experiment: Antiproliferative activity against human KB cells after 72 hrs by MTS test; assay type: functional, cell-based

Compound	inhibition at 10 µM (KB [1]) [%]	inhibition at 10 µM (HL-60) [%]	inhibition at 10 µM (K562) [%]	inhibition at 0.00025 µM (KB [2]) [%]	IC50 (KB [3]) [nM]
CC(=O)OC[C@H]1O[C@@H](N2C(=O)/C(=C3/C(=O)Nc4ccc(OC(F)(F)F)cc43)c3ccccc32)[C@H](OC(C)=O)[C@@H](OC(C)=O)[C@@H]1OC(C)=O	0	4	3	–	–
CC(=O)O[C@@]12CO[C@@H]1C[C@H](O)[C@@]1(C)C(=O)[C@H](O)C3=C(C)[C@@H](OC(=O)[C@H](O)[C@@H](NC(=O)OC(C)(C)C)c4ccccc4)C[C@@](O)([C@@H](OC(=O)c4ccccc4)[C@H]21)C3(C)C [DOCETAXEL]	–	46	32	71	–
O=C1Nc2ccccc2/C1=C1\C(=O)Nc2ccccc21 [ISOINDIGO]	92	53	64	–	1600
